Results on 1 compound are retold here after patent US10703761B2, “Bile acid receptor modulators and methods of use thereof” (City of Hope, priority 2016, dated 2020).

Each structure is given as a SMILES string. Entries after “also recorded” stand apart in the source; their conditions may differ.

The target of one assay is T1, TGR5 (Homo sapiens, UniProt Q8TDU6).
T1 construct: expressed in transfected cells
T1 sequence (Q8TDU6 1-330): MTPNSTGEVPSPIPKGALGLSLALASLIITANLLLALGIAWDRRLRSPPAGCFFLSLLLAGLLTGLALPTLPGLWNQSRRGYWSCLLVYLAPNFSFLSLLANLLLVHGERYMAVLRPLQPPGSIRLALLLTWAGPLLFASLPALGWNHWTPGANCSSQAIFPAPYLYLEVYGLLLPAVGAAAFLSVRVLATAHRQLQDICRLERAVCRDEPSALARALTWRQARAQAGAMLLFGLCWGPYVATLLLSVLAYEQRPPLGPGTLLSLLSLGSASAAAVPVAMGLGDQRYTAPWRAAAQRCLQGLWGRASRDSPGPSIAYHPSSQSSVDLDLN
Nature of the assay: TGR5 luciferase reporter (pCRE-luc) / cAMP assay in HEK293 cells overexpressing TGR5. It counts as cell-based. The protocol: FIG. 1(A-C): FIG. 1(A) Chemical structure of berberine. FIG. 1(B) HEK293 cells lacking or stably-overexpressing TGR5 were treated with increasing doses of berberine for 16 h. TGR5-reporting activity was evaluated by luciferase assay (n=8). FIG. 1(C) The ability of berberine to activate TGR5 and FXR was evaluated in comparison to the synthetic FXR agonist GW4064. Ligands were used at a concentration of […] (n=4). Statistical analysis was performed using paired t-test. **p<0.05, ***p<0.001.
FIG. 2(A) HEK293 cells lacking or overexpressing TGR5 were treated with increasing doses of berberine for 16 hours and TGR5-reporting activity was evaluated using luciferase assays. FIG. 2(B) Ability of berberine to activate metabolic nuclear receptors was evaluated in comparison to native ligands. All ligands were used at a 10 μM concentration.
To potentially identify selective TGR5 modulators via a novel strategy, we synthesized and screened a focused chemical compounds library to search for derivatives that have higher affinity and/or higher selectivity to effectively modulate TGR5 activity in vivo. A focused small chemical compound library was evaluated in in vitro TGR5 assays to search for berberine-derived agonists that have higher affinity, potency, and/or higher selectivity for TGR5. The receptor binding assay was performed by measuring the level of cyclic AMP (cAMP) using TR-FRET (time-resolved fluorescence resonance energy transfer) assay. The level of intracellular cAMP was determined with Lance kit (PerkinElmer). Lithocholic acid was used as control ligand. Z′ factor was used to validate assays. Non-linear regression curves, without constraints, was performed by using four parameter equation and GraphPad Prism Software (GraphPad Inc.) to obtain the EC50 values. All drugs tested positive with TR-FRET for TGR5 binding affinities were evaluated in cell-based assays, using HEK293 cells stably over expressing human TGR5 transfected with the cAMP-sensitive reporter plasmid pCRE-Luc. Compounds were initially tested at doses of […] and the relative fold activation on TGR5 was determined. […]
Background: A reporter such as luciferase makes a cellular process visible.

The conditions of assay [1]: oral 1.0 g/day/person for 3 months; cited from earlier work.
The next assay has as its system DIO mice. Nature of the assay: Hepatic lipid accumulation, Oil Red O staining. The format is in vivo, mouse. The protocol:
FIG. 9(A). lean mice. FIG. 9(B). DIO mice, FIG. 9(C). berberine, and FIG. 9(D). DY319. Intracellular lipids were stained with Oil Red O and visualized by phase-contrast microscopy (×200 magnification).
Cells on day 7 were washed twice with PBS, fixed with 10% neutral buffered formalin for 1 h at room temperature, washed with PBS and then dried completely. The fixed cells were stained with Oil Red O in an isopropanol/distilled water (6:4) solution for 30 min at room temperature and then washed twice with distilled water. The stained lipid droplets were observed, and microscopic images were obtained from randomly selected fields under a phase contrast microscope (AX70; Olympus, Tokyo, Japan) equipped with a digital camera and processed using ImagePro Plus software (Media Cybernetics, Silver Spring, Md., USA).

In the case of `COc1ccc2cc3[n+](cc2c1OC)CCc1cc2c(cc1-3)OCO2` [berberine], the “TGR5-reporting effect in cells lacking TGR5” value at TGR5 (HEK293 cells lacking TGR5) is recorded as “lost”. In addition, the TGR5 activation result at TGR5 (HEK293 cells overexpressing TGR5, 16 h) is “is a ligand for the G protein-coupled receptor TGR5; also recorded: can activate the bile acid receptor TGR5”. Further, the EC50 (in general, the concentration at which the effect is half-maximal) at TGR5 (unpublished data, read-out: TGR5 agonist EC50) came out at 0.46 µM. In addition, the “Efficacy and safety in type 2 diabetes and dyslipidemia” value in assay [1] is “effective and safe”. For the same compound, the Hepatic lipid accumulation entry in the assay on DIO mice is “prevent hepatic lipid accumulation”.
